Test: Stability test in artificial gastric juice
Type: physicochemical
Conditions: artificial gastric juice with acetonitrile, pH 1.2, artificial gastric juice pH ca. 1.2 with acetonitrile, 37° C.; calculated assuming pseudo-first-order decomposition
Procedure: Stability Test in Artificial Gastric Juice
2-[[[3-Methyl-4-(2,2,2-trifluoroethoxy)-2-pyridyl]methyl]sulfinyl]-1H-benzimidazole(lansoprazole) and the compounds (ca. 1-2 mg) of Examples 1, 2 and 18 were respectively dissolved in acetonitrile (1 mL). To each solution (0.2 mL) were added acetonitrile (1 mL) and artificial gastric juice (3 mL, a solution prepared by dissolving sodium chloride (2.0 g) in hydrochloric acid (7.0 mL) and adding water to the amount of 1000 mL, pH ca. 1.2), and the stability of each compound after preservation at 37° C. was examined. Samples were taken immediately after addition of acetonitrile and artificial gastric juice, and 4, 8, 12, 16 and 20 hours thereafter, analyzed under the following HPLC analysis conditions, and the half-life was calculated on the assumption that the decomposition of the compound was a pseudo-first-order reaction. […]
detection wavelength: UV 285 nm column: YMC Pro C18 75 mm×4.6 mm I.D. mobile phase: the proportion of mobile phase A (0.01 mol/L aqueous ammonium acetate solution) and mobile phase B (acetonitrile) was changed with the lapse of time as in the following.
10 min. from immediately after addition: mobile phase A/mobile phase B=60/40→10/90 10 min. to 15 min.: mobile phase A/mobile phase B=10/90
15.1 min. to 20 min.: mobile phase A/mobile phase B=60/40 flow rate: 1.0 mL/min. column temperature: 25° C.

| half-life | SMILES |
| --- | --- |
| < 0.03 h | Cc1c(OCC(F)(F)F)ccnc1C[S+]([O-])c1nc2ccccc2[nH]1 (stereo not drawn) [lansoprazole, 2-[[[3-Methyl-4-(2,2,2-trifluoroethoxy)-2-pyridyl]methyl]sulfinyl]-1H-benzimidazole, reference compound] |
| ≥ 4 h | Cc1c(OCC(F)(F)F)ccnc1C[S+]([O-])c1nc2ccccc2n1COC(=O)c1ccccc1 (stereo not drawn) [Example 1, [2-[[[3-Methyl-4-(2,2,2-trifluoroethoxy)-2-pyridinyl]methyl]sulfinyl]-1H-benzimidazol-1-yl]methyl benzoate] |
| ≥ 4 h | CCCOC(=O)OCn1c([S+]([O-])Cc2nccc(OCC(F)(F)F)c2C)nc2ccccc21 (stereo not drawn) [Example 18, [2-[[[3-Methyl-4-(2,2,2-trifluoroethoxy)-2-pyridinyl]methyl]sulfinyl]-1H-benzimidazol-1-yl]methyl propyl carbonate] |
